pIC50: −log10 of the molar value. Where two headings read alike, the source gives them in different places.
Columns and labels:
[1] = test system: phosphoCTD (S2) in HCT116 cells; experiment: Phospho-carboxyl terminal domain (Ser2) p-CTD (S2) cell based Acumen assay; conditions: read-out: relative IC50 for phosphoCTD (S2)
Protocol: HCT116 cells (ATCC CCL-247) are cultured in McCoy’s 5 Å Medium Modified media supplemented with 10% FBS, 1% NaPyr, and 1% Pen/Strep and plated (prior to becoming 70% confluent) in 96-well flat-bottom plates at a density of 5,000 cells per well in 100 µL volume. The cells are then incubated overnight in a cell culture incubator (5% CO2, 95% Relative Humidity (RH) and 37° C.) and allowed to attach to the plate. The following morning the cells are dosed with compounds. Compound inhibitors are first solubilized at 60 µM in culture medium containing 0.6% DMSO. Subsequently compound serial dilutions (1:3) are prepared over a 60 µM to 0.003 µM range. Cells are dosed with the addition of 50 µL from serial dilution plate to assay plate containing cells attached with 100 µL of media producing a final DMSO concentration of 0.2% with a final compound concentration dose range between 20 and 0.001 µM. For max point media containing 0.2% of DMSO is used and for min point, a reference compound diluted at 0.83 µM final concentration in the growth media containing 0.2% DMSO is used. After dosing with compounds, the cell plates are incubated at 37° C. and 5% CO2 for 4 hours. The growth media is removed carefully and the cells are fixed by adding 100 µL of 4% para-formaldehyde for 30 minutes at RT. Cells are washed once with PBS and incubated with 100 µL of cold MeOH for 15 minutes at RT for cell permeation. Cells are washed twice with PBS (100 µL/each) and blocked with 100 µL/well of 1% BSA/PBS for 30 minutes at RT. 50 µL of 1:1000 primary antibody (Anti-phospho CTD Ser2 Abcam, cat# ab5095-100) dilution in 1% BSA/PBS are added per well, the plates are sealed and incubated overnight at 4° C.
The following day cells are washed three times with PBS (100 µL/well) and incubated with 50 µL/well of secondary antibody (1:2000 dilution, Goat anti-rabbit IgM ALEXA FLUOR™ 488) in PBS for 1 hour at RT. After washing 3X with PBS (100 µL/well), 100 µL of 50 µg/mL RNAase and 1:1000 propidium iodide dilution in PBS are added per well. Plates are sealed and incubated 1 hour at RT on the bench (preserved from light). Plates are analyzed on Acumen on FL2 (mean intensity) and FL3 (total intensity). Fluorescence plates are scanned with ACUMEN EXPLORER™ [Laser-scanning fluorescence microplate cytometer manufactured by TTP LABTECH LTD] to measure anti-phospho-carboxyl terminal domain at Serine 2 (pCTD). Image analysis is based on cellular fluorescent signals for identifying positive cells. pCTD (S2) positive cells are identified by mean intensity at 500-530 above the threshold. Total intensity at 575-640 from propidium iodide/DNA is used to identify individual cells. Assay output is % pCTD positive cells.
The IC50 is determined by curve fitting to a four parameter logistic for each output using GENE DATA™.

cMyc in HCT116 cells = experiment: cMyc cell based Acumen assay; conditions: read-out: Relative IC50 for cMyc
Protocol: HCT116 cells (ATCC CCL-247) are cultured in McCoy’s 5 Å Medium Modified media supplemented with 10% FBS, 1% NaPyr, and 1% Pen/Strep and plated (prior to becoming 70% confluent) in 96-well flat-bottom plates at a density of 5,000 cells per well in 100 µL volume. The cells are then incubated overnight in a cell culture incubator (5% CO2, 95% Relative Humidity (RH), and 37° C.) and allowed to attach to the plate. The following morning the cells are dosed with compounds. Compound inhibitors are solubilized at 60 µM in culture medium containing 0.6% DMSO. Subsequently, compound serial dilutions (1:3) are prepared over a 60 µM to 0.003 µM range. Cells are dosed with the addition of 50 µL from serial dilution plate to assay plate containing cell attached with 100 µL of media producing a final DMSO concentration of 0.2% with a final compound concentration dose range between 20 µM and 0.001 µM. For max point media containing 0.2% of DMSO is used and for min point, a reference compound diluted at 0.83 µM final concentration in the growth media containing 0.2% DMSO is used. After dosing with compounds, the cell plates are incubated at 37° C. and 5% CO2 for 4 hours. Growth media is removed carefully and the cells are fixed by adding 100 µL of 4% para-formaldehyde for 30 minutes at RT. Cell are washed once with PBS and incubated with 100 µL of cold MeOH for 15 minutes at RT for cell permeation. Again cell are washed twice with PBS (100 µL/each) and blocked with 100 µL/well of 1% BSA/PBS for 30 minutes at RT. 50 µL of 1:1000 primary antibody (Anti-c-Myc antibody [Y69] Abcam cat# ab32072) dilution in 1% BSA/PBS are added per well, the plates sealed and incubated overnight at 4° C. The following day cells are washed three times with PBS (100 µL/well) and incubated with 50 µL/well of secondary antibody (1:2000 dilution, Goat anti-rabbit IgM ALEXA FLUOR™ 488) in PBS for 1 hour at RT. After wash 3× with PBS (100 µL/well), 100 µL of 50 µg/mL RNAase and 1:1000 propidium iodide (Invitrogene) dilution in PBS are added per well. Plates are sealed and incubated for 1 hour at RT on the bench (preserved from light). Plates are analyzed on Acumen on FL2 (mean intensity), and FL3 (total intensity). Fluorescence Plates are scanned with ACUMEN EXPLORER™ [Laser-scanning fluorescence microplate cytometer manufactured by TTP LABTECH LTD] to measure anti-phospho-carboxyl terminal domain at Serine 5 (pCTD). Image analysis is based on cellular fluorescent signals for identifying positive cells. pCTD (S5) positive cells are identified by mean intensity at 500-530 above the threshold. Total intensity at 575-640 from propidium iodide/DNA is used to identify individual cells. Assay output is % pCTD positive cells. The IC50 is determined by curve fitting to a four parameter logistic for each output using GENE DATA™.

CDK7/CyclinH/Mat1 = CDK7/CyclinH/Mat1 (Homo sapiens, UniProt P50613); experiment: Biochemical assay for inhibition of CDK7/CyclinH/MAT1 (radiolabel filter binding); conditions: 100 µM ATP
CDK9/cyclinT1 = CDK9/cyclinT1 (Homo sapiens, UniProt P50750); experiment: Assay for inhibition of CDK9/CyclinT1 kinase activity (radiolabel filter binding); conditions: IC50 for CDK9 (3 hours preincubation), 100 µM ATP
[2] = IC50 after 3 hours of preincubation of CDK7 enzyme, 3 hours preincubation
[3] = IC50 in CDK7 without preincubation, no preincubation of enzyme with compound

Sequence of CDK7/CyclinH/Mat1 (P50613 whole entry): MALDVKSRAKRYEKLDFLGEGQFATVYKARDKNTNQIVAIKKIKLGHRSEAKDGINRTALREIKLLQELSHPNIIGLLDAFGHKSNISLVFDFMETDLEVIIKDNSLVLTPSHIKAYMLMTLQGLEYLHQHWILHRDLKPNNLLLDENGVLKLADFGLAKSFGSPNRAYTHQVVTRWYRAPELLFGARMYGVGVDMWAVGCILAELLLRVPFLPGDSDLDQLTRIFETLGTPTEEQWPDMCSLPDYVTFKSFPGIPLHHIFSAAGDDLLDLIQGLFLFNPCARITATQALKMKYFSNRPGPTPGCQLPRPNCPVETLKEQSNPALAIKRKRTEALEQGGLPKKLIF
Sequence of CDK7/CyclinH/Mat1 (P51946 whole entry partner): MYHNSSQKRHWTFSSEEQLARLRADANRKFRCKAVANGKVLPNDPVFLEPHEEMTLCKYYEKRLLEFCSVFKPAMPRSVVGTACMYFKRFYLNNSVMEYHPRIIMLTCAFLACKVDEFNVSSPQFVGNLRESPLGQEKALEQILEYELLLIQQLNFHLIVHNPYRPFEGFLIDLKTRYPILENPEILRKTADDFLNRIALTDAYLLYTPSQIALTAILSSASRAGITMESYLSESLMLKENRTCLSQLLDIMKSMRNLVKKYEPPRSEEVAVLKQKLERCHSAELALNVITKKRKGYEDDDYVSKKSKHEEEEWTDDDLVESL
Sequence of CDK7/CyclinH/Mat1 (P51948 whole entry partner): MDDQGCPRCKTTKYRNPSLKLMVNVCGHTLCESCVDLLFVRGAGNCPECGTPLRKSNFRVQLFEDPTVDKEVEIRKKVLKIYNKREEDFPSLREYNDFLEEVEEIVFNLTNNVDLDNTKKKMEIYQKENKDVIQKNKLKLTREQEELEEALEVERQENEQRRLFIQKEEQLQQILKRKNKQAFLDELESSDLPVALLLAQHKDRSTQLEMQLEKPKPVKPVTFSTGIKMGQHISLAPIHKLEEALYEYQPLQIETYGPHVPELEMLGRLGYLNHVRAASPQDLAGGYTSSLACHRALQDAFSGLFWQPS
Sequence of CDK9/cyclinT1 (P50750 whole entry): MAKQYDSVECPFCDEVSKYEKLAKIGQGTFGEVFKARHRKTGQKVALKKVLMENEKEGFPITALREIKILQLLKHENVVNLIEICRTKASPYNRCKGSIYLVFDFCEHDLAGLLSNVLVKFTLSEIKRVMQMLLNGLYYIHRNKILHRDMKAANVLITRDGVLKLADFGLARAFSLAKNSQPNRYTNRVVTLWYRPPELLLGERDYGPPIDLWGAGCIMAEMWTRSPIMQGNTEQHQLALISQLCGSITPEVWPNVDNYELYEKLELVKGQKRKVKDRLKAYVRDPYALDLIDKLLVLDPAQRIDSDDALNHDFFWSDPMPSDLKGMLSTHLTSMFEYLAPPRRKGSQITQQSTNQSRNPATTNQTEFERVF
Sequence of CDK9/cyclinT1 (O60563 whole entry partner): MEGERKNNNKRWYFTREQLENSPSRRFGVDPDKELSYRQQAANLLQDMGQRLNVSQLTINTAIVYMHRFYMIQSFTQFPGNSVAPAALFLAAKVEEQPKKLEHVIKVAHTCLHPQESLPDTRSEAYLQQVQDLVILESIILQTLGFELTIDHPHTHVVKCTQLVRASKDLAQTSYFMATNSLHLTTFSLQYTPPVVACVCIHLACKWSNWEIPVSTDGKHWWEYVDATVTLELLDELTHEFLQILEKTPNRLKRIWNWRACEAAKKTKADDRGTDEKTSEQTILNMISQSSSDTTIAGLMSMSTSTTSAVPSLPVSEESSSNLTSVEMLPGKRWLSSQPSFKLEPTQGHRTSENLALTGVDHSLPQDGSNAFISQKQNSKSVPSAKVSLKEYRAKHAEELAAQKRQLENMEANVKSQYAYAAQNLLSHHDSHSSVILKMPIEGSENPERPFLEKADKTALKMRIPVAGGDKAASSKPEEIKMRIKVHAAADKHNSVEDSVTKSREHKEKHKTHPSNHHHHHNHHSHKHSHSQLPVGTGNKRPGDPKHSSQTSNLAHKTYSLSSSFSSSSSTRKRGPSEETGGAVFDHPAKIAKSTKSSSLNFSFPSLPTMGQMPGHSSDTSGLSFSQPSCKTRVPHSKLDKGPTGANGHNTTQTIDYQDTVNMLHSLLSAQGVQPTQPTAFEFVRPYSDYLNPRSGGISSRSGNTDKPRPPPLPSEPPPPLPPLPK

SMILES	pIC50 ([1]; Homo sapiens, HCT-116, 4 h)	pIC50 (cMyc in HCT116 cells; Homo sapiens, HCT-116, 4 h)	pIC50 (CDK7/CyclinH/Mat1; [2])	pIC50 (CDK7/CyclinH/Mat1; [3])	pIC50 (CDK9/cyclinT1)	pIC50 ([1]; 4 hours)	pIC50 (cMyc in HCT116 cells; 4 hours)
C=CC(=O)N1CCO[C@H](CN2CCC(Nc3cc(C(F)(F)F)cn4c(C(C)C)cnc34)CC2)C1 [Example 8, 1-[(2R)-2-[[4-[[3-isopropyl-6-(trifluoromethyl)imidazo[1,2-a]pyridin-8-yl]amino]-1-piperidyl]methyl]morpholin-4-yl]prop-2-en-1-one]	5.59	7.61	8.24	7.18	5.67	–	–
C=CC(=O)N1CCO[C@H](CN2CCC(Nc3cc(C(C)F)cn4c(C(C)C)cnc34)CC2)C1 (single isomer, unassigned) [Example 1]	5.24	7.09	7.84	6.91	5.75	–	–
C=CC(=O)N1CCO[C@H](CN2CCC(Nc3cc(C(C)O)cn4c(C(C)C)cnc34)CC2)C1 (single isomer, unassigned) [Example 5]	–	–	7.38	6.44	5.15	5.11	6.85

Continued, values first:

pIC50 ([1]; Homo sapiens, HCT-116, 4 h)	pIC50 (cMyc in HCT116 cells; Homo sapiens, HCT-116, 4 h)	pIC50 (CDK7/CyclinH/Mat1; [2])	pIC50 (CDK7/CyclinH/Mat1; [3])	pIC50 (CDK9/cyclinT1)	pIC50 ([1]; 4 hours)	pIC50 (cMyc in HCT116 cells; 4 hours)	SMILES
5.42	8.10	8.40	7.17	5.79	–	–	[2H]C([2H])=C([2H])C(=O)N1CCO[C@H](CN2CCC(Nc3cc(C(F)(F)F)cn4c(C(C)C)cnc34)CC2)C1 [Example 6, 2,3,3-trideuterio-1-[(2R)-2-[[4-[[3-isopropyl-6-(trifluoromethyl)imidazo[1,2-a]pyridin-8-yl]amino]-1-piperidyl]methyl]morpholin-4-yl]prop-2-en-1-one]
5.53	7.86	8.20	7.07	5.69	–	–	[2H]CC([2H])(C)c1cnc2c(NC3CCN(C[C@@H]4CN(C(=O)C=C)CCO4)CC3)cc(C(F)(F)F)cn12 (mixture of isomers) [Example 7, 1-[(2R)-2-[[4-[[3-[rac-1,2-dideuterio-1-methyl-ethyl]-6-(trifluoromethyl)imidazo[1,2-a]pyridin-8-yl]amino]-1-piperidyl]methyl]morpholin-4-yl]prop-2-en-1-one]
–	–	7.58	6.59	5.50	5.20	7.02	C=CC(=O)N1CCO[C@H](CN2CCC(Nc3cc(C(C)F)cn4c(C(C)C)cnc34)CC2)C1 (single isomer, unassigned) [Example 2]
–	–	7.84	6.81	5.09	5.43	7.42	C=CC(=O)N1CCO[C@H](CN2CCC(Nc3cc(C(C)O)cn4c(C(C)C)cnc34)CC2)C1 (single isomer, unassigned) [Example 4]
